Reference: patent US6723733B2, “Sulfonamide and carbamide derivatives of 6(5H)phenanthridinones and their uses” (Guilford Pharmaceuticals, Inc., priority 2000, dated 2004)

Legend:
rabbits = details: cited from earlier work
Swiss albino mice = test: MSU crystal-induced neutrophil recruitment (gout model, peritonitis); assay type: in vivo, mouse; details: 45 mg/kg i.p.
Experimental: Male outbread Swiss albino mice (20-22 g body weight) were purchased from Banton and Kingsman (T.O. strain; Hull, Humberside) and maintained on a standard chow pellet diet with tap water ad libitum and a 12:00 h light/dark cycle. All animals were housed for 1 week prior to experimentation to allow body weight to reach 28-30 g.
1,1,1lb-dihydrobenzopyrano[4,3,2-de]isoquinolin-1-one was dissolved in 100% DMSO at room temperature at a concentration of 45 mg in 2 ml. The compound was then injected into the peritoneal cavity, so as each mouse received a single dose corresponding to 45 mg/2 ml/kg (e.g. 60 μl for a mouse of 30 g). […]
MSU crystal-induced neutrophil recruitment was tested as follows. […] Peritonitis was induced by injection of 3 mg MSU crystals in 0.5 ml PBS (0.1 M, pH 7.4), and the recruitment of neutrophils into the cavity evaluated at the 6 h time point (Getting et al., 1997, J. Pharmacol. Exp. Ther. 283: 123-130). […]
An aliquot (100 μl) of the lavage fluid was then diluted 1:10 in Turk's solution (0.01% crystal violet in 3% acetic acid). The samples were then vortexed and 10 μl of the stained cell solution were placed in a Neubauer haematocymometer and neutrophils numbers counted using a light microscope (Olympus B061). […]
Data are shown for single mice, and also shown as mean±S.E. of (n) mice per group. Statistical differences were determined by ANOVA, plus Bonferroni test. […]

male Long-Evans rats = test: Focal cerebral ischemia (MCA cauterization with temporary bilateral CCA occlusion); assay type: in vivo, rat; details: 24 h, mean±SD
Experimental: Focal cerebral ischemia is produced by cauterization of the right distal MCA (middle cerebral artery) with bilateral temporary common carotid artery occlusion in male Long-Evans rats for 90 minutes. All procedures performed on the animals are approved by the University Institutional Animal Care and Use Committee of the University of Pennsylvania. A total of 42 rats (weights: 230-340 g) obtained from Charles River were used in this study. The animals fasted overnight with free access to water prior to the surgical procedure
Two hours prior to MCA occlusion, varying amounts (control, n=14; 5 mg/kg, n=7; 10 mg/kg, n=7; 20 mg/kg, n=7; and 40 mg/kg, n=7) of the compound, 3,4-dihydro-5-[4-(1-piperidinyl)-butoxy]-1(2H)-isoquinolinone (“DPQ”) were dissolved in dimethyl sulfoxide (DMSO) using a sonicator. A volume of 1.28 ml/kg of the resulting solution was injected intraperitoneally into […].
The rats were then anesthetized with halothane (4% for induction and 0.8%-1.2% for the surgical procedure) in a mixture of 70% nitrous oxide and 30% oxygen. The body temperature was monitored by a rectal probe and maintained at 37.5±0.5° C. with a heating blanket regulated by a homeothermic blanket control unit (Harvard Apparatus Limited, Kent, U.K.). A catheter (PE-50) was placed into the tail artery, and arterial pressure was continuously monitored and recorded on a Grass polygraph recorder (Model 7D, Grass Instruments, Quincy, Mass.). Samples for blood gas analysis (arterial pH, PaO2 and PaCO2) were also taken from the tail artery catheter and measured with a blood gas analyzer (ABL 30, Radiometer, Copenhagen, Denmark). Arterial blood samples were obtained 30 minutes after MCA occlusion.
The head of the animal was positioned in a stereotaxic frame, and a right parietal incision between the right lateral canthus and the external auditory meatus was made. Using a dental drill constantly cooled with saline, a 3 mm burr hole was prepared over the cortex supplied by the right MCA, 4 mm lateral to the sagittal suture and 5 mm caudal to the coronal suture. The dura mater and a thin inner bone layer were kept, care being taken to position the probe over a tissue area devoid of large blood vessels. The flow probe (tip diameter of 1 mm, fiber separation of 0.25 mm) was lowered to the bottom of the cranial burr hole using a micromanipulator. The probe was held stationary by a probe holder secured to the skull with dental cement. The microvascular blood flow in the right parietal cortex was continuously monitored with a laser Doppler flowmeter (FloLab, Moor, Devon, U.K., and Periflux 4001, Perimed, Stockholm, Sweden). […]

## Oc1cccc2c(O)nccc12 [1,5-dihydroxyisoquinoline]
rabbits; single injection 1 mg/kg
  reduction in infarct size: 38-48%

## O=C1N=Cc2cccc3c2C1c1ccccc1O3 (centres unmarked) [1,11b-dihydrobenzopyrano[4,3,2-de]isoquinolin-1-one]
Swiss albino mice; 6 h after MSU crystals
  inhibition of cell influx vs. the vehicle group: 55%
Swiss albino mice; group C, MSU crystals (3 mg), 6 h, n=8, P < 0.05 vs. vehicle group B (6.30 ± 0.33)
  Neutrophils (10^6 per mouse), mean ± S.E.: 2.85 ± 0.34 (8) * 10^6 per mouse

## NC(=O)c1cccc(N)c1 [3-amino-benzamide]
rabbits; single injection 10 mg/kg, one minute before occlusion or before reperfusion
  reduction in infarct size in the heart: 32-42%

## O=C1NCCc2c(OCCCCN3CCCCC3)cccc21 [DPQ, 3,4-dihydro-5-[4-(1-piperidinyl)-butoxy]-1(2H)-isoquinolinone]
Male Long-Evans rats; 5 mg/kg i.p. 2 h before and 2 h after MCA occlusion, control 165.2±34.0, p<0.001
  damaged volume (total volume of infarction): 106.7±23.2 mm^3
Male Long-Evans rats; 10 mg/kg i.p. 2 h before and 2 h after MCA occlusion, control 165.2±34.0 mm^3, p<0.001
  damaged volume (total volume of infarction): 76.4±16.8 mm
Male Long-Evans rats; 20 mg/kg i.p. 2 h before and 2 h after MCA occlusion, control 165.2±34.0, p<0.01
  damaged volume (total volume of infarction): 110.2±42.0 mm^3
Male Long-Evans rats; 40 mg/kg i.p. 2 h before and 2 h after MCA occlusion, no significant difference from control 165.2±34.0
  damaged volume (total volume of infarction): 135.6±44.8 mm^3
